≈ marks a conversion by molar mass, not a printed value. Like-named read-outs stand apart in the source and are kept apart here. Each block holds one molecule with its values, some of them ahead of it.
Key:
KB = assay: Growth inhibition of oral epithelial cancer cell KB (MTT); assay type: cell-based
Experimental: (§1) In the present experiment, the inhibitory activity of the compound of formula (1) was determined against the growth of K562 cancer cell. First, the cells were allowed to stand in RPMI (Roswell Park Memorial Institute)-1640 medium containing 10% (v/v) fetal bovine serum in an incubator of 37° C. and 5% by volume of CO2. The cancer cells (1000 cells) were transferred to a 96-well plate, and the test compound was diluted. The plate was allowed to stand under the above mentioned conditions for 2 days. After this treatment, to the cells was added 0.2% MTT (3-[4,5-dimethylthiazol-2-yl]-2,5-diphenyltetrazolium bromide) solution, and the resulting mixture was allowed to stand under the constant temperature-condition for 4 hours. The supernatant was removed to leave the resulting crystal. DMSO was added to dissolve the crystal, and the absorbance of the solution was measured at 540 nm. IC50 value was calculated using a computer system according to the following formula: (OD540(test)−OD540(blank)/OD540(control)−OD540(blank))×100
(§2) The test was performed according to the same procedure as Experiment 1.

SK-OV-03 = assay: Growth inhibition of ovarian cancer cell SK-OV-03 (MTT); assay type: cell-based; settings: for IC50: SK-OV-03, Experiment 4
Experimental: as §1, §2

SNU-1 = assay: Growth inhibition of gastric cancer cell SNU-1 (MTT); assay type: cell-based
Experimental: as §1, §2, §2

Sarcoma-180 = assay: Growth inhibition of Sarcoma-180 (MTT); assay type: cell-based; settings: for IC50: Sarcoma-180, Experiment 4
Experimental: as §1, §2

A549 = assay: Growth inhibition of lung cancer cell A549 (MTT); assay type: cell-based
Experimental: as §1, §2, §2

Panc-1 = assay: Growth inhibition of pancreatic cancer cell Panc-1 (MTT); assay type: cell-based; settings: Homo sapiens; Panc-1, Experiment 3
Experimental: as §1, §2

rat (SD-Rat) = assay: Acute toxicity test in rat (oral administration); assay type: in vivo; settings: SD-Rat, orally 1,000, 2,000 mg/kg, 14 days
Experimental: (§3) In this test, the acute toxicity of the compound of the present invention when the compound is […] was determined on rat (SD-Rat, 100˜110 g). One group consists of 5 males and 5 females. The first group is the control group and 0.5% CMC was intravenously administered to this group. The compounds of Examples 5 and 8 were orally administered in a dosage of 1,000, 2,000 mg/kg, respectively, to each test group. […] On the last day of the test, 14th day from the start, the rat were subjected to an autopsy in order to examine changes of the internal organs. […] Further, since no […] died during the test period, it was confirmed that the compounds of Examples 5 and 8 have LD50 of 2,000 mg/kg or more. This means that the compounds of the present invention including those of Examples 5 and 8 are safe in the aspect of acute toxicity.

[1] = Acute toxicity test in rat (oral administration); assay type: in vivo; settings: both sexes, SD, rat, in vivo, po
Experimental: as §3

SNU-C1 = assay: Growth inhibition of colon cancer cell SNU-C1 (MTT); assay type: cell-based; settings: Homo sapiens; SNU-C1, Experiment 3
Experimental: as §1, §2

K562 cancer cell = assay: Growth inhibition of K562 cancer cell (MTT); assay type: cell-based; settings: for IC50: Homo sapiens, K562, 48 h, K562, MTT, 2 days; for improved activity compared with Imatinib mesylate: K562
Experimental: as §1

RPMI-6666 = assay: Growth inhibition of lymphoma cell RPMI-6666 (MTT); assay type: cell-based; settings: Homo sapiens; RPMI-6666, Experiment 3
Experimental: as §1, §2

[2] = Acute toxicity test in mice (oral administration); assay type: in vivo; settings: both sexes, ICR, mouse, in vivo, po
Experimental: (§4) In order to determine the acute toxicity of the compound of the present invention when the compound is orally administered, mice (ICR, 24˜26 g) were fasted for 16 hours. One group consists of 10 males and 10 females. The first group is the control group and 0.5% sodium carboxymethyl cellulose (CMC) was administered per oral to this group. The compounds of Examples 5 and 8 were orally administered in a dosage of 2,000 mg/kg, the maximum dosage in acute toxicity test, to each test group. […] On the last day of the test, 14th day from the start, the mice were subjected to an autopsy in order to examine changes of the internal organs. […] Further, since no mouse died during the test period, it was confirmed that the compounds of Examples 5 and 8 have LD50 of 2,000 mg/kg or more. This means that the compounds of the present invention including those of Examples 5 and 8 are safe in the aspect of acute toxicity.

mice (ICR) = assay: Acute toxicity test in mice (oral administration); assay type: in vivo; settings: mice (ICR), oral 2,000 mg/kg, 14 days
Experimental: as §4

[3] = Comparative pharmacokinetic test in white rats
CT-26 cancer cell = assay: Growth inhibition of CT-26 cancer cell (MTT); assay type: cell-based; settings: for improved activity compared with Imatinib mesylate: CT-26; for IC50: CT-26, MTT, 2 days
Experimental: as §1
In the present experiment, the inhibitory activity of the compounds of formula (1) was determined against the growth of CT-26 cancer cell. The test was performed according to the same procedure as Experiment 1.

A-172 = assay: Growth inhibition of encephalophyma cell A-172 (MTT); assay type: cell-based; settings: Homo sapiens; A-172, Experiment 3
Experimental: as §1, §2

HT-1197 = assay: Growth inhibition of bladder cancer cell HT-1197 (MTT); assay type: cell-based; settings: Homo sapiens, HT1197; HT-1197, Experiment 3
Experimental: as §1, §2

in vivo = settings: male, Sprague-Dawley, rat, po, 100 mg/kg
[4] = Homo sapiens, SNU1, SNU-1, Experiment 3, read-out: IC50
[5] = Homo sapiens, A549, Experiment 3, read-out: IC50
[6] = male, Sprague-Dawley, rat, plasma, po, 100 mg/kg
[7] = Mus musculus, CT26, 48 h, read-out: IC50

Compound: N.N.[Cl][Pt][Cl] [Cisplatin, reference compound]
- IC50 (KB; Experiment 4): 0.28 ng/mL
- IC50 (SK-OV-03): 782 ng/mL
- IC50 (SNU-1; SNU-1, Experiment 4): 2064 ng/mL
- IC50 (Sarcoma-180): <0.1 ng/mL
- IC50 (A549; A549, Experiment 4): 679 ng/mL

Compound: Cc1cn(-c2cc(NC(=O)c3ccc(C)c(Nc4nccc(-c5nccs5)n4)c3)cc(C(F)(F)F)c2)cn1 [Example 5, 4-methyl-N-[3-(4-methylimidazol-1-yl)-5-trifluoromethyl-phenyl]-3-(4-thiazol-2-yl-pyrimidin-2-ylamino)-benzamide]
- IC50 (Panc-1): 7100 ng/mL (≈ 13.3 µM)
- clinical conditions and autopsy (rat (SD-Rat)): neither abnormal response nor specific autopsy result was observed
- LD50 at 14 days [1]: ≥ 2000 mg/kg
- IC50 (SNU-C1): < 10 ng/mL
- IC50 (K562 cancer cell): ≤ 10 ng/mL
- improved activity compared with Imatinib mesylate (K562 cancer cell): 50 times
- IC50 (RPMI-6666): < 10 ng/mL
- LD50 at 14 days [2]: ≥ 2000 mg/kg
- clinical conditions and autopsy (mice (ICR)): neither abnormal response nor specific autopsy result was observed
- IC50 (SNU-1; [4]): < 10 ng/mL
- IC50 (A549; [5]): 82 ng/mL (≈ 0.153 µM)
- AUC [3, 6]: 114000 ng·h/mL
- Cmax [3, 6]: 8270 ng/mL
- Tmax [3, 6]: 11.2 h
- AUC as much as that of Imatinib mesylate ([3]; white rats, 100 mg/kg per oral): ~5 times
- Cmax as much as that of Imatinib mesylate ([3]; white rats, 100 mg/kg per oral): about 4 times
- improved activity compared with Imatinib mesylate (CT-26 cancer cell): 300 times
- IC50 (CT-26 cancer cell; [7]): 60 ng/mL (≈ 0.112 µM)
- IC50 (A-172): < 10 ng/mL
- IC50 (HT-1197): 63 ng/mL (≈ 0.118 µM)

Compound: Cc1cnc(NC(=O)c2ccc(C)c(Nc3nccc(-c4nccs4)n3)c2)s1 [Example 7, 4-methyl-N-(5-methylthiazol-2-yl)-3-(4-thiazol-2-yl-pyrimidin-2-ylamino)-benzamide]
- IC50 (K562 cancer cell): ≤ 10 ng/mL
- improved activity compared with Imatinib mesylate (K562 cancer cell): 50 times
- improved activity compared with Imatinib mesylate (CT-26 cancer cell): 300 times
- IC50 (CT-26 cancer cell; [7]): < 10 ng/mL

Compound: Cc1cn(-c2cc(NC(=O)c3ccc(C)c(Nc4nccc(-c5cnccn5)n4)c3)cc(C(F)(F)F)c2)cn1 [Example 8, 4-methyl-N-[3-(4-methylimidazol-1-yl)-5-trifluoromethyl-phenyl]-3-(4-pyrazin-2-yl-pyrimidin-2-ylamino)-benzamide]
- IC50 (Panc-1): 498 ng/mL (≈ 0.939 µM)
- improved activity than Imatinib mesylate (KB): more than 1×10^4 time
- IC50 (KB; Homo sapiens, Experiment 4, read-out: IC50): 0.58 ng/mL (≈ 0.00109 µM)
- clinical conditions and autopsy (rat (SD-Rat)): neither abnormal response nor specific autopsy result was observed
- LD50 at 14 days [1]: ≥ 2000 mg/kg
- improved activity than Imatinib mesylate (SK-OV-03; SK-OV-03): > 12 times
- IC50 (SK-OV-03; read-out: IC50): 2390 ng/mL (≈ 4.51 µM)
- IC50 (SNU-C1): < 10 ng/mL
- IC50 (K562 cancer cell): ≤ 10 ng/mL
- improved activity compared with Imatinib mesylate (K562 cancer cell): 50 times
- IC50 (RPMI-6666): < 10 ng/mL
- AUC (in vivo): 61300 ng·h/mL
- Cmax (in vivo): 4100 ng/mL
- Tmax (in vivo): 12 h
- LD50 at 14 days [2]: ≥ 2000 mg/kg
- clinical conditions and autopsy (mice (ICR)): neither abnormal response nor specific autopsy result was observed
- IC50 (SNU-1; [4]): < 10 ng/mL
- IC50 (SNU-1; Homo sapiens, SNU1, SNU-1, Experiment 4, read-out: IC50): 270 ng/mL (≈ 0.509 µM)
- improved activity in comparison with cisplatin (SNU-1; SNU-1, Experiment 4): more than 8 times
- improved activity than Imatinib mesylate (SNU-1; SNU-1, Experiment 4): more than 170 times
- IC50 (Sarcoma-180; Mus musculus, read-out: IC50): < 0.1 ng/mL
- improved activity than Imatinib mesylate (Sarcoma-180; Sarcoma-180): more than 1×10^4 time
- improved activity than Imatinib mesylate (A549; A549, Experiment 4): > 3.5 times
- IC50 (A549; [5]): 2230 ng/mL (≈ 4.2 µM)
- improved activity compared with Imatinib mesylate (CT-26 cancer cell): 300 times
- IC50 (CT-26 cancer cell; [7]): < 10 ng/mL
- IC50 (A-172): < 10 ng/mL

The next lines start with results.

- IC50 (CT-26 cancer cell; [7]): < 10 ng/mL
Compound: Cc1ccc(C(=O)Nc2cc(-n3ccnc3C)cc(C(F)(F)F)c2)cc1Nc1nccc(-c2nccs2)n1 [Example 6, 4-methyl-N-[3-(2-methylimidazol-1-yl)-5-trifluoromethyl-phenyl]-3-(4-thiazol-2-yl-pyrimidin-2-ylamino)-benzamide]
- improved activity compared with Imatinib mesylate (K562 cancer cell): 50 times
- improved activity compared with Imatinib mesylate (CT-26 cancer cell): 300 times

- IC50 (K562 cancer cell): ≤ 10 ng/mL
- IC50 (CT-26 cancer cell; [7]): < 10 ng/mL
Compound: Cc1ccc(C(=O)Nc2cc(-n3ccnc3C)cc(C(F)(F)F)c2)cc1Nc1nccc(-c2cnccn2)n1 [Example 9, 4-methyl-N-[3-(2-methylimidazol-1-yl)-5-trifluoromethyl-phenyl]-3-(4-pyrazin-2-yl-pyrimidin-2-ylamino)-benzamide]
- improved activity compared with Imatinib mesylate (K562 cancer cell): 50 times
- improved activity compared with Imatinib mesylate (CT-26 cancer cell): 300 times

- IC50 (K562 cancer cell): 210 ng/mL (≈ 0.386 µM)
- IC50 (CT-26 cancer cell; [7]): 2930 ng/mL (≈ 5.38 µM)
Compound: Cc1cn(-c2cc(NC(=O)c3ccc(C)c(Nc4nccc(-c5nccnc5C)n4)c3)cc(C(F)(F)F)c2)cn1 [Example 12, 4-methyl-N-[3-(4-methylimidazol-1-yl)-5-trifluoromethyl-phenyl]-3-[4-(3-methylpyrazin-2-yl)-pyrimidin-2-ylamino]-benzamide]
- improved activity compared with Imatinib mesylate (K562 cancer cell): much higher activity than Imatinib mesylate

- IC50 (K562 cancer cell): 304 ng/mL (≈ 0.558 µM)
- IC50 (CT-26 cancer cell; [7]): 3770 ng/mL (≈ 6.92 µM)
Compound: Cc1ccc(C(=O)Nc2cc(-n3ccnc3C)cc(C(F)(F)F)c2)cc1Nc1nccc(-c2nccnc2C)n1 [Example 13, 4-methyl-N-[3-(2-methylimidazol-1-yl)-5-trifluoromethyl-phenyl]-3-[4-(3-methylpyrazin-2-yl)-pyrimidin-2-ylamino]-benzamide]
- improved activity compared with Imatinib mesylate (K562 cancer cell): much higher activity than Imatinib mesylate

- IC50 (CT-26 cancer cell): 2.3 ng/mL
Compound: Cc1cn(-c2cc(NC(=O)c3ccc(Nc4nccc(-c5cccnc5)n4)cc3)cc(C(F)(F)F)c2)cn1.Cl.Cl [Example 24, N-[3-(4-methylimidazol-1-yl)-5-trifluoromethyl-phenyl]-4-(4-pyridin-3-yl-pyrimidin-2-ylamino)-benzamide 2 hydrochloride]
- improved activity compared with Imatinib mesylate (K562 cancer cell): 50 times
- improved activity compared with Imatinib mesylate (CT-26 cancer cell): 300 times

- IC50 (CT-26 cancer cell): 9.4 ng/mL
Compound: Cc1cn(-c2cc(NC(=O)c3ccc(Nc4nccc(-c5nccs5)n4)cc3)cc(C(F)(F)F)c2)cn1.Cl.Cl [Example 30, N-[3-(4-methylimidazol-1-yl)-5-trifluoromethyl-phenyl]-4-(4-thiazol-2-yl-pyrimidin-2-ylamino)-benzamide 2 hydrochloride]
- improved activity compared with Imatinib mesylate (K562 cancer cell): 50 times
- improved activity compared with Imatinib mesylate (CT-26 cancer cell): 300 times

Reference: US7501424B2, “N-phenyl-2-pyrimidine-amine derivatives and process for the preparation thereof” (Il-Yang Pharm. Co., Ltd., priority 2005, dated 2009)
